Patent publication US20170035713A1, “SYNERGISTIC COMBINATIONS OF CAROTENOIDS AND POLYPHENOLS” (LYCORED LTD., priority 2009, published 2017)

Columns and labels:
Assay type in all cases: cell-based, mouse
[1] = system: macrophage superoxide production; assay: Superoxide production by macrophages (ferricytochrome c reduction); conditions: optimal low concentrations
Procedure: Peritoneal macrophages were isolated and treated as described hereinabove in Example 1.
Superoxide production: The production of superoxide anion (O2^−) by macrophages was measured as the superoxide dismutase-inhibitable reduction of ferricytochrome c by the microtiter plate technique, as known in the prior art. An aliquot of radiolabelled macrophages (5× 10^5 cells/well) used for the adherence assay was taken and suspended in 100 μl incubation medium containing ferricytochrome c ([…]). Stimulation was induced with PMA (50 ng/ml). The reduction of ferricytochrome c was followed by a change of absorbance at 550 nm at 2 min intervals for 30 min on a Thermomax Microplate Reader (Molecular Devices, Melno Park, Calif., USA). The maximal rates of superoxide generation were determined and expressed as nanomoles O2^−/10^6 cells/10 min using the extinction coefficient E550=21 mM^−1 cm^−1.

[2] = system: PGE2 production by peritoneal macrophages; assay: PGE2 measurement (radio-immunoassay) in LPS-stimulated peritoneal macrophages; conditions: for inhibition of PGE2 production (in words): FIG. 5a/5b lower panel, lutein 0.5 μM, beta-Carotene 1 μM, carnosic acid 1 μM; for inhibition of PGE2 production: used alone, FIG. 4 / FIG. 5a upper panel, same set of experiments as FIG. 2
Procedure: (§1) Macrophage isolation and cell culture—Peritoneal macrophages were collected from the peritoneal cavity of 6-8 week old male ICR mice (Harlan, Israel) that had been given an intraperitoneal injection of 1.5 ml of thioglycollate broth (4%) 4 days before harvest. Peritoneal macrophages were washed three times with PBS and, if needed, a hypotonic lysis of erythrocytes was performed, yielding 90-95% purity. The macrophages were identified by FACS analysis using FITC-conjugated rat anti-mouse F4/80 (MCA497F) (Serotec, Oxford, England) by flow microfluorimetry on FACS (Becton Dickinson, Mountain View, Calif.). For each sample, 10,000 light scatter-gated viable cells were analyzed. Peritoneal macrophages and murine macrophage cell line RAW264.7 were cultured RPMI 1640 medium containing 10% FCS, 2 mM L-glutamine; 100 U/ml penicillin; 100 μg/ml streptomycin (Beit-Haemek, Israel) in 96-well plates (1×10^6 cells/well) at 37° C. in 5% CO2 atmosphere. Cells were stimulated with LPS (0.1-1 μg/ml) in the presence or absence of carnosic acid and/or one or more of the following carotenoids: carnosic acid, purified lycopene, lycopene-rich tomato extract (Lyc-O-Mato®; LycoRed Ltd., Be'er Sheva, Israel), lutein and beta-Carotene.
(§2) The carnosic acid and the various carotenoids were dissolved in DMSO (to a final concentration of 5 mM). The mixture was vortexed and incubated in a water bath at 37° C. (with shaking) for 10 min and then sonicated in a sonicator bath three times for 15 seconds each time. Using this stock solution the desired concentrations were prepared by the addition of appropriate volumes thereof to warm culture medium.
(§3) Appropriate volumes of DMSO (0.1-0.2%) were added to the controls and the percent inhibition in each test tube was calculated in relation to its control.
PGE2 measurement—Supernatants of resting and stimulated cells were collected and immediately stored at −70° C. PGE2 levels were determined by utilizing a dextran coated charcoal radio-immunoassay protocol as previously described (Dror N, Tveria L, Meniv I, Ben-Shmuel S, Filipovich T, Fleisher-Berkovich S., Regul Pept. 2008 150: 21-5).
Briefly, 100 μl sample or PGE2 standard (Sigma Israel, Rehovot, Israel) were incubated in the presence of 500 μl anti-PGE2 anti-serum (Sigma Israel, Rehovot, Israel) for 30 min. [^3H]PGE2 (Amersham Biosciences, NJ, USA) was added next for 24 h at 4° C. 24 h later, 200 […]μl cold dextran coated charcoal suspension was added to each tube and incubated for 10 min on ice. The tubes were centrifuged at 3500 RPM for 15 min at 4° C. 500 μl of supernatants containing [^3H]PGE2-anti-PGE2 complexes were counted (Packard Spectrometry 1900CA) and the amount of PGE2 was calculated.

[3] = system: NO production by peritoneal macrophages; assay: NO production assay in LPS-stimulated peritoneal macrophages (Example 1)
Procedure: as §1, §2, §3
NO production assay—NO levels in supernatants of cell cultures were determined by assaying nitrite levels using Griess reagent and sodium nitrite as a standard as described in Green, L. C., Wagner, D. A., Glogowski, J., Skipper, P. L., Wishnok, J. S., and Tannenbaum, S. R. (1982) Anal Biochem. 126: 131-138.

[4] = system: LPS stimulated NO production by macrophages; assay: NO production assay in LPS-stimulated peritoneal macrophages, curcumin, lutein and Lycomato (second Example 1)
Procedure: Macrophage isolation and cell culture—Peritoneal macrophages were collected from the peritoneal cavity of 6-8 week old male ICR mice (Harlan, Israel) that had been given an intraperitoneal injection of 1.5 ml of thioglycollate broth (4%) 4 days before harvest. Peritoneal macrophages were washed three times with PBS and, if needed, a hypotonic lysis of erythrocytes was performed, yielding 90-95% purity. The macrophages were identified by FACS analysis using FITC-conjugated rat anti-mouse F4/80 (MCA497F) (Serotec, Oxford, England) by flow microfluorimetry on FACS (Becton Dickinson, Mountain View, Calif.). For each sample, 10,000 light scatter-gated viable cells were analyzed. Peritoneal macrophages were cultured in RPMI 1640 medium containing 10% FCS, 2 mM L-glutamine; 100 U/ml penicillin; 100 μg/ml streptomycin (Beit-Haemek, Israel) in 96-well plates (2×10^5 cells/well) at 37° C. in 5% CO2 atmosphere. LycoMato, Lutein and curcumin-PC (Indena product) and, for comparison, LycoMato, Lutein and pure curcumin and their various combinations were added to the cells. One hour later, LPS (0.2 μg/ml) was added and the macrophages were cultured at 37° C. in a 5% CO2 atmosphere for 24 h.
Curcumin PC (Indena) was dissolved in Diethylene glycol monoethyl ether from Sigma (as recommended by Indena). The volume of solvent was 0.12% for 1 µM curcumin PC. The concentration of curcumin PC was calculated according to its content in the formula (Curcumin PC). Lycomato and Lutein or curcumin were dissolved in DMSO (the volume of DMSO in the test solution was 0.01% for either 1 […] Lycomato, Lutein or pure curcumin. The mixture was vortexed and shaken at 37° C. for 10 min and sonicated in a sonicator bath for 15 sec×3 times. From this stock solution the desired concentrations were made by addition of appropriate volumes to warm culture medium. The concentration of lycopene in solution was calculated to 1 ml of the highest final concentration 0.5 ml isopropanol+1.5 ml hexane/dichloromethane (1:5 V/V) containing 0.025% BHT. The solution is vortexed and the phases are separated by centrifugation 3000 rpm for 10 min. A spectrum was done to detect the level of nutrients.
To the controls appropriate volumes of DMSO and/or Diethylene glycol monoethyl ether were added and the percent inhibition of each test tube was calculated in relation to its control tube.
NO production assay—NO levels in supernatants of cell cultures were determined by assaying nitrite levels using Griess reagent and sodium nitrite as a standard.

[5] = system: TNF-alpha production by peritoneal macrophages; assay: TNF-alpha production assay (ELISA) in LPS-stimulated peritoneal macrophages; conditions: FIG. 3; same set of experiments and concentrations as FIG. 2
Procedure: as §1, with “Cells were stimulated with LPS (0.1-1 μg/ml) in the presence or absence of carnosic acid and/or one or more of the following carotenoids: carnosic acid, purified lycopene, lycopene-rich tomato extract (Lyc-O-Mato®; LycoRed Ltd., Be'er Sheva, Israel), lutein and beta-Carotene.” left out
as §3
TNF-alpha production assay—Concentrations of TNF-alpha were quantified using ELISA kits (Biolegend Inc., San Diego, Calif.).

[6] = Mus musculus, Peritoneal macrophage, read-out: inhibition of NO production

CC1=C(/C=C/C(C)=C/C=C/C(C)=C/C=C/C=C(C)/C=C/C=C(C)/C=C/C2=C(C)CCCC2(C)C)C(C)(C)CCC1 [beta-carotene]
inhibition at 2 µM ([1]; Mus musculus, Macrophage, alone, beta-carotene 2 μM): 10% | inhibition of PGE2 production (in words) [2]: neither lutein (0.5 μM) nor beta-Carotene (1 μM) alone affected PGE2 production | inhibition of PGE2 production [2]: around 20%

CC(C)c1cc2c(c(O)c1O)[C@@]1(C(=O)O)CCCC(C)(C)[C@@H]1CC2 [carnosic acid]
inhibition at 1 µM [3, 6]: 12% | inhibition at 2 µM [3, 6]: 18% | inhibition at 1 µM ([2]; Mus musculus, Peritoneal macrophage, read-out: inhibition of PGE2 production): 10% | inhibition of PGE2 production [2]: around 20%

CC1=C[C@H](O)CC(C)(C)[C@H]1/C=C/C(C)=C/C=C/C(C)=C/C=C/C=C(C)/C=C/C=C(C)/C=C/C1=C(C)C[C@@H](O)CC1(C)C [lutein]
inhibition of PGE2 production (in words) [2]: neither lutein (0.5 μM) nor beta-Carotene (1 μM) alone affected PGE2 production | inhibition at 1 µM ([4]; Mus musculus, Macrophage, 2 μM Curcumin-PC or pure Curcumin, 1 μM Lycomato, 1 μM Lutein, alone or combined, LPS 0.2 μg/ml, 24 h): 5 ± 0.9%

CC(C)=CCC/C(C)=C/C=C/C(C)=C/C=C/C(C)=C/C=C/C=C(C)/C=C/C=C(C)/C=C/C=C(\C)CCC=C(C)C [lycopene]
inhibition of superoxide production (in words) ([1]; FIG. 9): lack of detectable inhibition | inhibition of NO production (in words) ([3]; alone, range of 1-5 μM): low level inhibition | inhibition of TNF-alpha production (in words) [5]: lack of detectable inhibition

COc1cc(/C=C/C(=O)CC(=O)/C=C/c2ccc(O)c(OC)c2)ccc1O [pure curcumin, curcumin]
inhibition of LPS stimulated NO production ([4]; 2 μM Curcumin-PC or pure Curcumin, 1 μM Lycomato, 1 μM Lutein, alone or combined, LPS 0.2 μg/ml, 24 h): 2±0.4% | inhibition at 15 µM ([4]; Mus musculus, Macrophage, dose response 0-20 μM, at 15 μM): 75% | inhibition of NO production (in words) ([4]; alone, 1 μM and 2 μM): non-significant inhibitory effect
